Test results published in PubChem BioAssay (NCI).
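Values below derive from 48-hour exposures of cells grown in 96-well plates, with endpoints linearly interpolated between the two concentrations bracketing the appropriate inhibition level. TGI: total growth inhibition.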

Experiments:
Assay in all cases: NCI tumour cell line growth inhibition, 48 h
NCI-H460 lung = system: NCI-H460 lung
UO-31 renal = system: UO-31 renal
HS 578T breast = system: HS 578T breast
OVCAR-4 ovarian = system: OVCAR-4 ovarian
UACC-257 melanoma = system: UACC-257 melanoma
DU-145 prostate = system: DU-145 prostate
A549 NSCLC = system: A549 NSCLC
MDA-N = system: MDA-N
RPMI-8226 leukemia = system: RPMI-8226 leukemia
SK-MEL-28 melanoma = system: SK-MEL-28 melanoma

Row | Compound | TGI (NCI-H460 lung) | TGI (UO-31 renal) | TGI (HS 578T breast) | TGI (OVCAR-4 ovarian) | TGI (UACC-257 melanoma) | TGI (DU-145 prostate) | TGI (A549 NSCLC) | TGI (MDA-N) | TGI (RPMI-8226 leukemia) | TGI (SK-MEL-28 melanoma)
1 | CC(C)=CCC[C@@H](C)C1=C(O)C(Nc2ccccc2F)=C(C)C(=O)C1=O | > 100 µM | 47.7 µM | 54.8 µM | > 100 µM | > 100 µM | > 67.8 µM | > 77.5 µM | > 100 µM | > 89.1 µM | > 100 µM
2 | CCC(=O)n1c(=O)n(-c2ccc([N+](=O)[O-])cc2)c(=O)n1C(=O)CC | > 100 µM | > 100 µM | > 100 µM | > 100 µM | > 100 µM | > 100 µM | > 100 µM | > 100 µM | > 100 µM | > 100 µM
3 | CCOc1ccc(-n2c(=O)n3c(Nc4ccc(Cl)cc4)nc4c(c(=O)n(C)c(=O)n4C)n3c2=O)cc1 | 36.1 µM | > 100 µM | > 100 µM | > 100 µM | 60.4 µM | > 100 µM | > 100 µM | > 100 µM | 61.4 µM | 65.3 µM
4 | CC1(C)OCC(C2OC(=O)C(OCc3ccccc3)=C2OCc2ccccc2)O1 (configuration not stated) | > 100 µM | > 100 µM | > 100 µM | > 100 µM | 96.8 µM | > 100 µM | > 100 µM | > 100 µM | 76.5 µM | > 100 µM
5 | CC(=N\N=C\c1ccccn1)/C(C)=N/N=C/c1ccccn1 | > 100 µM | > 100 µM | > 100 µM | > 100 µM | > 100 µM | > 100 µM | > 100 µM | > 100 µM | > 100 µM | > 100 µM
6 | CC1=NN(c2cccc(Cl)c2)C2(C1)SCC(=O)N2c1nc2ccccc2s1 (configuration not stated) | 58.8 µM | 57.4 µM | > 100 µM | > 100 µM | 57.7 µM | > 100 µM | > 100 µM | > 100 µM | 38.6 µM | > 100 µM
7 | Nc1nc(SCc2ccccc2[N+](=O)[O-])c2[nH]cnc2n1 | > 76.1 µM | > 100 µM | 24.7 µM | > 100 µM | > 75.9 µM | > 100 µM | > 100 µM | > 100 µM | > 100 µM | > 100 µM
8 | CN(C)Cc1cc(C(=O)/C=C/c2c(F)cccc2Cl)cc(CN(C)C)c1O | 11.8 µM | 18.7 µM | 50.2 µM | 31 µM | 24.6 µM | 21.3 µM | 32.5 µM | 29.1 µM | 49.6 µM | 31.9 µM
9 | O=C1O[C@H](COC(=O)c2ccccc2)[C@@H](OC(=O)c2ccccc2)C=C1OC(=O)c1ccccc1 | 36.6 µM | > 100 µM | > 100 µM | 48.7 µM | 69.3 µM | > 100 µM |  | > 100 µM | 71.8 µM | 
10 | O=S(=O)(Nc1nc(-c2cc(O)c(O)c(O)c2)cs1)c1ccc(Cl)cc1Cl | 38.6 µM | 46.5 µM | 53.6 µM | 47.9 µM | 67.7 µM | 53.8 µM | > 100 µM | 73.9 µM | 40.8 µM | > 100 µM
11 | O=C1CSC(c2c(O)ccc3ccccc23)N1n1c(=S)[nH]nc(/C=C/c2c(O)ccc3ccccc23)c1=O (configuration not stated) | 11.5 µM | 15.1 µM | > 100 µM | 40.3 µM | 14.3 µM | 15.3 µM | 21.8 µM | > 100 µM | 17.4 µM | 
12 | Cc1ccc(N2C(=O)C(O)=C(C(=O)C(C)(C)C)C2c2ccc([N+](=O)[O-])cc2)cc1 (configuration not stated) | 30.5 µM | 89.3 µM | 45.3 µM | 22.3 µM | 34.8 µM | > 100 µM | 82.5 µM | 69.2 µM | 49.4 µM | 63.6 µM
13 | COC(=O)C1(Cc2ccc3c(c2)CCC3)Cc2cc3c(cc2C1=O)CCC3 (configuration not stated) | > 46.4 µM | > 46.4 µM | > 46.4 µM | > 46.4 µM | > 46.4 µM | > 46.4 µM | > 46.4 µM | > 46.4 µM | 31.3 µM | > 46.4 µM
14 | CCCCCCCCCCOC1C(C(C)OCCCN(C)C)OC2OC3(CCCCC3)OC21 (configuration not stated) | 22.7 µM | 31.7 µM | 35.8 µM | 27.5 µM | 35.5 µM | 31.2 µM | 30.8 µM | 21.8 µM | 17.4 µM | 25.5 µM
15 | CN(C)C(=O)CO/N=C1/C(c2c(O)[nH]c3ccccc23)=Nc2ccccc21 | > 100 µM | > 100 µM | > 100 µM | > 100 µM | > 100 µM | > 100 µM | > 100 µM | > 100 µM | > 100 µM | > 100 µM
16 | CN1CCN(CCCCNc2cc3c4ccccc4c(NCCCCN4CCN(C)CC4)cc3c3ccccc23)CC1 | 3.2 µM | 11.8 µM | 5.65 µM | 2.87 µM | 19 µM | 3.14 µM | 3.21 µM | 0.977 µM | 4.14 µM | 29 µM
17 | C[N+](C)(N)Cc1csc(-c2ccc(Cl)cc2)n1 | > 100 µM | > 100 µM | > 100 µM | > 100 µM | > 100 µM | > 100 µM | > 100 µM | > 100 µM | > 100 µM | > 100 µM
18 | O=C(O)[C@H]1NC[C@@H]2ON=C(Br)[C@@H]21 | > 100 µM | > 100 µM | > 100 µM | > 100 µM | > 100 µM | > 100 µM | > 100 µM | > 100 µM | > 100 µM | > 100 µM
